Patent US7037891B2, “Methods of modulating G-protein-coupled receptor kinase-associated signal transduction” (Children's Medical Center Corporation, priority 1997, dated 2006)

Key:
[1] = Reduction of weight and appetite of normal mice; assay type: in vivo; details: for change in body weight as compared to control / food consumption as compared to control: NDP-αMSH 0.9 μg/kg BW; for change in body weight as compared to control: KO24H107 21 mg/kg, or both (FIG. 7A); for food consumption as compared to control: KO24H107 21 mg/kg, or both (FIG. 7B)
Method: 18 Sabra male mice, 8 weeks old, were used and were divided into four groups as followed:
The animals were weighed before trial and periodically during the trial.
At the same time, food was weighted before it was introduced into cages and at the end of each tested period. From this point on, the follow-up included both weighing of the mice and of the food for the short period, every couple of hours, until night, and later on for the long period, each 24 hour cycle.
The results of FIG. 7A are shown as the percentage of change in body weight as compared to the initial weight for each mice, and then averaged for each group. The calculation of food consumption (FIG. 7B) was calculated in each group relative to the total weight of all animals (4 or 5 animals) and averaged separately for each group.
The above experiment was conducted again with another compound comprising a GRK-derived peptide KO24H112 (SEQ ID NO:5) 16 animals were used as follows: […]

[2] = Type II diabetes in sand rats: blood-glucose after i.p. injection; assay type: in vivo, sand rats (psamomys obesus); details: diabetic sand-rats
Text: Sand-rats (psamomys) which are genetically prone to develop Type II diabetes were used in this study. The genetically selected sand-rats, 3 to 6 months old, were fed an energy-rich diet (Weizmann HE) for about 3 to 10 days until they became diabetic, as judged by their elevated blood-glucose level (see R. Kalman et al., “The Efficiency of Sand Rat Metabolism is Responsible for Development of Obesity and Diabetes”, J. of Basic & Clinical Physiology & Pharmacology (1993), vol. 4, no. 1–2, pp 57–68, the pertinent portions of which are incorporated herein by reference).
The diabetic sand-rats were injected i.p. once a week with a compound comprising GRK-derived peptide K024H107 (SEQ ID NO:10) at a dose of 10 mg/kg. The peptide was prepared by diluting a 10 mM solution of the peptide in 100% DMSO with phosphate buffered saline (PBS) containing 0.1% bovine serum albumin (BSA) to a concentration of 400 μM. […] of the 10 mM peptide in DMSO solution was mixed with 160 μl of 1.6M NH4HCO3 and heated for 40 minutes at 100° C. The resultant solution was then diluted to 400 μM in 2 M Hepes buffer (pH 7.0). This peptide stock solution was labeled “tbi”. The vehicle of the solution for injection included 8% DMSO, 0.67M ammonium bicarbonate, and 2M Hepes. Control animals received an i.p. injection of the vehicle only.

C6 glioblastoma cells = assay: Intracellular cyclic AMP levels (EIA) after isoproterenol activation; assay type: cell-based
Text: It is well known that after activation of the various GPCRs there is an activation of the adenolate cyclase by G-proteins. This raises the cyclic-AMP levels in the cell, and these levels are then decreased due to the desensitization of the receptors by GRK. Thus it is expected that inhibition of GAST will eliminate this decrease in the cyclic AMP levels, and will cause a constitutive increase in cAMP levels.
C6 glioblastoma cells, which are known to express the β-adrenagic receptor (the substrate of GRK). have been used.
To the cells the following compounds were added:
The amount of the activity was measured by measuring the increase of intracellular cyclic AMP levels, which were measured using the commercially available kit of Biotrack Cellular Communication Assay cyclic-AMP enzyme—immunoassay (EIA) system.

Substance	weight change ([1]; normal mice, 23.2 mg/kg and 31.5 mg/kg, vs vehicle (FIG. 8A))	change in food consumption ([1]; normal mice, 23.2 mg/kg and 31.5 mg/kg, vs vehicle (FIG. 8B))	change in body weight as compared to control ([1]; normal Sabra male mice)	food consumption as compared to control ([1]; normal Sabra male mice)	animals that became normoglycemic already after the first injection (responders) ([2]; i.p. 10 mg/kg once a week) [animals]	rest of the treated animals (nonresponders): normoglycemia ([2]; i.p. 10 mg/kg once a week)	blood-glucose ([2]; i.p. 10 mg/kg, after a single injection, vs vehicle controls (FIG. 3, 4))	cyclic AMP levels (C6 glioblastoma cells; 10 μM compound added first, 1 μM isoproterenol an hour later (FIG. 6))	cyclic AMP level (C6 glioblastoma cells; order reversed: 1 μM isoproterenol first, 10 μM compound one hour later (FIG. 6))	weight and food consumption effect compared among the three treated groups ([1]; normal Sabra male mice, compound alone 21 mg/kg vs NDP-αMSH and combination (FIG. 7A, 7B))
KO24H112: GRK-derived peptide; SEQ ID NO.: 15 in b61, printed SEQ ID NO:5 in b230 (LLRRHSI; bARK1)	effective in reducing both body weight and consumption	effective in reducing both body weight and consumption								
NDP-αMSH [reference compound]			weight decrease	decrease in food consumption						
K024H107: GRK-derived peptide, SEQ ID NO.: 10 (LLRRHS; bARK1)			weight decrease	decrease in food consumption	4	became nornoglycemic after three additional weekly injections	dramatic decrease in blood-glucose to the normal level	rose significantly	hardly changed	strongest effect
